Laboratory results from US20230172846A1, “ORAL DISSOLVABLE FILM AND METHOD OF MANUFACTURING AND USING THE SAME” (CURE PHARMACEUTICAL HOLDING CORP., priority 2019, published 2023).

Key:
[1] = CBD film stability study (% assay of CBD); assay type: physicochemical
pancreatic cancer = conditions: in vivo; cited from earlier work
[2] = Vitamin D3 Oral Thin Film 4 weeks stability study (% assay); assay type: physicochemical; conditions: for % Assay of Vitamin D3: in oral thin film
Source text: Vitamin D3 is a highly sensitive Lipophilic active pharmaceutical ingredient (API). It was used as a model drug, formulated using above formulation and, Vitamin D3 Oral Thin Film tested for 4 weeks stability study.

In the case of C=C(C)[C@@H]1CCC(C)=C[C@H]1c1c(O)cc(CCCCC)cc1O [CBD, Cannabidiol], the “% Assay of CBD” value ([1]; 25 C./60% RH, T0 Week) is reported as 108%, the “% Assay of CBD” value ([1]; 25 C./60% RH, T1 Month) is reported as 109% and the “% Assay of CBD” value ([1]; 25 C./60% RH, T2 Months) is reported as 113%. The “% Assay of CBD” value ([1]; 25 C./60% RH, T 2 Weeks) was 109%, the “% Assay of CBD” value ([1]; 25 C./60% RH, T3 Months) was 120% and the “% Assay of CBD” value ([1]; 40 C./75% RH, T1 Month) was 106%. The “% Assay of CBD” value ([1]; 40 C./75% RH, T2 Months) was 113%, the “% Assay of CBD” value ([1]; 40 C./75% RH, T 2 Weeks) was 108% and the “% Assay of CBD” value ([1]; 40 C./75% RH, T3 Months) was 118%. For the same compound, the “% Assay of CBD” value ([1]; 40 C./75% RH, T9 Months) was 96%, the “Stability and protection of the API in the film formulation” value ([1]; T=3M stability) was “better stability” and the “% Assay of CBD” value ([1]; in film formulation, 25 C./60% RH, T1 Month) was 109%. The “% Assay of CBD” value ([1]; in film formulation, 25 C./60% RH, T2 Months) was 113%, the “% Assay of CBD” value ([1]; in film formulation, 25 C./60% RH, T 2 Weeks) was 109% and the “% Assay of CBD” value ([1]; in film formulation, 25 C./60% RH, T3 Months) was 120%. For the same compound, the “% Assay of CBD” value ([1]; in film formulation, 40 C./75% RH, T1 Month) was 106%, the “% Assay of CBD” value ([1]; in film formulation, 40 C./75% RH, T2 Months) was 113% and the “% Assay of CBD” value ([1]; in film formulation, 40 C./75% RH, T 2 Weeks) was 108%. The “% Assay of CBD” value ([1]; in film formulation, 40 C./75% RH, T3 Months) was 118% and the “% Assay of CBD” value ([1]; in film formulation, T0 Week) was 108%.
For COc1cc(-c2cc(=O)c3c(O)cc(O)c(CC=C(C)C)c3o2)ccc1O [FBL-03G], the “Survival rate of subjects suffering from pancreatic cancer” value (pancreatic cancer) is given as “increase survival rate”.
For C=C1CC[C@H](O)C/C1=C/C=C1\CCC[C@]2(C)[C@@H]([C@H](C)CCCC(C)C)CC[C@@H]12 [Vitamin D3], the “Protection and stability of Vitamin D3 in OTF” value ([2]; 4 weeks stability study, high heat and humidity) was “significant protection”, the “% Assay of Vitamin D3” value ([2]; 25 C./60% RH, T 1 Week) was 95% and the “% Assay of Vitamin D3” value ([2]; 25 C./60% RH, T2 Weeks) was 100%. The “% Assay of Vitamin D3” value ([2]; 25 C./60% RH, T3 Weeks) was 101%, the “% Assay of Vitamin D3” value ([2]; 25 C./60% RH, T4 Weeks) was 101% and the “% Assay of Vitamin D3” value ([2]; 40 C./75% RH, T 1 Week) was 98%. For the same compound, the “% Assay of Vitamin D3” value ([2]; 40 C./75% RH, T2 Weeks) was 92%, the “% Assay of Vitamin D3” value ([2]; 40 C./75% RH, T3 Weeks) was 91% and the “% Assay of Vitamin D3” value ([2]; 40 C./75% RH, T4 Weeks) was 93%. For the same compound, the “% Assay of Vitamin D3” value ([2]; T0 Week) was 100%.
